From ChEMBL document CHEMBL1123137 (J Med Chem, 1985)

Key:
[1] = HPLC capacity factor (k'); type: ADME
[2] = target: Adenosine receptor A2a (Canis lupus familiaris) (UniProt P11617); assay: Molar potency ratio was evaluated
Sequence of Adenosine receptor A2a (Canis lupus familiaris) (P11617 whole entry, looked up): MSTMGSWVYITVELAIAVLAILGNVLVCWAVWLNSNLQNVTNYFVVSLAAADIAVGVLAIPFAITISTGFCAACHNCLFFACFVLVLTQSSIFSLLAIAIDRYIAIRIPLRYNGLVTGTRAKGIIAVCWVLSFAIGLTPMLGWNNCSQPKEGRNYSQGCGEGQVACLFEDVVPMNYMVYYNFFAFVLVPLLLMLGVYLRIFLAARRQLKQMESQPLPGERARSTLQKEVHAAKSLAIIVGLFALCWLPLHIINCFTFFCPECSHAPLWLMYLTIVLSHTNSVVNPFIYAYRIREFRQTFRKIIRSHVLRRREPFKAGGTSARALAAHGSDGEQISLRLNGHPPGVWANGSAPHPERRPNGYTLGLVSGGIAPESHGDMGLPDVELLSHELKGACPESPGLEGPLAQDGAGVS

| Compound | k' [1] | MPR [2] |
| --- | --- | --- |
| C[C@H](CCc1ccccc1)Nc1ncnc2c1ncn2[C@@H]1O[C@H](CO)[C@@H](O)[C@H]1O | 6.11 | 0.19 |
| CCCCCCNc1ncnc2c1ncn2C1O[C@H](CO)[C@@H](O)[C@H]1O (some centres not stated) | 5.88 | 0.2 |
| OC[C@H]1OC(n2cnc3c(NC(C4CC4)C4CC4)ncnc32)[C@H](O)[C@@H]1O (some centres not stated) | 2.68 | 1.5 |
| NNc1ncnc2c1ncn2[C@@H]1O[C@H](CO)[C@@H](O)[C@H]1O | 0.14 | 0.046 |
| CC(C)(Cc1ccccc1)Nc1ncnc2c1ncn2C1O[C@H](CO)[C@@H](O)[C@H]1O (some centres not stated) | 7.43 | 0.011 |
| CC1(Nc2ncnc3c2ncn3C2O[C@H](CO)[C@@H](O)[C@H]2O)CCCC1 (some centres not stated) | 5.02 | 0.033 |
| CCCCCCC(C)Nc1ncnc2c1ncn2C1O[C@H](CO)[C@@H](O)[C@H]1O (some centres not stated) | 16.88 | 0.052 |
| C[C@@H](CNc1ncnc2c1ncn2[C@@H]1O[C@H](CO)[C@@H](O)[C@H]1O)c1ccccc1 | 2.89 | 2.4 |
| CCCCCC(C)Nc1ncnc2c1ncn2C1O[C@H](CO)[C@@H](O)[C@H]1O (some centres not stated) | 8.54 | 0.31 |
| C[C@H](CNc1ncnc2c1ncn2[C@@H]1O[C@H](CO)[C@@H](O)[C@H]1O)c1ccccc1 | 3 | 3 |
| C[C@@H](Nc1ncnc2c1ncn2[C@@H]1O[C@H](CO)[C@@H](O)[C@H]1O)[C@@H](O)c1ccccc1 | 1.32 | 2.9 |
| CC[C@H](CO)Nc1ncnc2c1ncn2[C@@H]1O[C@H](CO)[C@@H](O)[C@H]1O | 0.4 | 0.77 |
| OC[C@H]1O[C@@H](n2cnc3/c(=N\OCc4ccccc4)[nH]cnc32)[C@H](O)[C@@H]1O | 1.04 | 0.42 |
| CCC(CNc1ncnc2c1ncn2C1O[C@H](CO)[C@@H](O)[C@H]1O)c1ccccc1 (some centres not stated) | 5.89 | 3.3 |
| OC[C@H]1O[C@@H](n2cnc3c(NC4CC5CCC4C5)ncnc32)[C@H](O)[C@@H]1O (stereo in doubt; 57) [listing 1 of 2 here] | 2.63 | – |
| CCCNc1ncnc2c1ncn2C1O[C@H](CO)[C@@H](O)[C@H]1O (some centres not stated) | 0.57 | 0.64 |

| Compound | k' [1] | MPR [2] |
| --- | --- | --- |
| OC[C@H]1OC(n2cnc3c(NCC(O)c4ccccc4)ncnc32)[C@H](O)[C@@H]1O (some centres not stated) | 0.79 | 1.4 |
| C[C@@H](Cc1ccccc1)Nc1ncnc2c1ncn2[C@@H]1OC(CO)[C@@H](O)[C@H]1O (single isomer, unassigned) | 2.61 | – |
| CCCCCNc1ncnc2c1ncn2[C@@H]1O[C@H](CO)[C@@H](O)[C@H]1O | 3.08 | 0.36 |
| OC[C@H]1OC(n2cnc3c(NC(Cc4ccccc4)Cc4ccccc4)ncnc32)[C@H](O)[C@@H]1O (some centres not stated) | 14.83 | 0.33 |
| C=CCNc1ncnc2c1ncn2[C@@H]1O[C@H](CO)[C@@H](O)[C@H]1O | 0.36 | 0.23 |
| OC[C@H]1OC(n2cnc3c(NCCC4CCCCC4)ncnc32)[C@H](O)[C@@H]1O (some centres not stated) | 8.92 | 0.04 |
| OC[C@H]1O[C@@H](n2cnc3c(NC4CC4)ncnc32)[C@H](O)[C@@H]1O | 0.2 | 0.38 |
| OC[C@H]1O[C@@H](n2cnc3c(NC4CC5CCC4C5)ncnc32)[C@H](O)[C@@H]1O (stereo in doubt; 57) [listing 2 of 2 here] | – | 0.54 |
| OC[C@H]1O[C@@H](n2cnc3c(Cl)ncnc32)[C@H](O)[C@@H]1O | – | 0.023 |
| OC[C@H]1O[C@@H](n2cnc3cncnc32)[C@H](O)[C@@H]1O | – | 0.023 |
| Cc1ncnc2c1ncn2[C@@H]1O[C@H](CO)[C@@H](O)[C@H]1O | – | 0.007 |
| OC[C@H]1O[C@@H](n2cnc3c(NC4CC5CCC4C5)ncnc32)[C@H](O)[C@@H]1O (stereo in doubt; 58) | – | 0.55 |
| OC[C@H]1O[C@@H](n2cnc3/c(=N\O)[nH]cnc32)[C@H](O)[C@@H]1O | – | 0.16 |
| CN(C)c1ncnc2c1ncn2[C@@H]1O[C@H](CO)[C@@H](O)[C@H]1O | – | 0.001 |
| OC[C@H]1O[C@@H](n2cnc3c(NO)ncnc32)[C@H](O)[C@@H]1O | 0.16 | – |
